Measured values: article PMC1950228, “Organosilicon-Containing Thiazole Derivatives as Potential Lipoxygenase Inhibitors and Anti-Inflammatory Agents” (Bioinorganic Chemistry and Applications, 2007)
≈ marks a conversion by molar mass, not a printed value. Where “and” joins values, the source holds several entries; their conditions need not be identical. Identical values can stand only once. Entries after “also recorded” stand apart in the source; their conditions may differ. Like-named read-outs stand apart in the source and are kept apart here. Marks after values point to notes of the source that are not given here.

What was measured:
[1] = In vitro cytotoxicity, NIH 3T3 (neutral red) and LD50; format: cell-based; conditions: for CC50 at 72 h: 50% cell killing, neutral red coloration, normal mouse fibroblasts, read-out: LC50 NIH 3T3 NR; for LD50: mouse, NIH 3T3, method not described
Experimental: The control cells and cells with tested compounds in the range of 2–5* 10^4 cell mL^−1 concentration (depending on line nature) were placed on separate 96 wells plates. […] Control cells were treated in the same manner only in the absence of test compounds. Plates were cultivated for 72 hours. The number of survived cells was determined using crystal violet (CV), 3-(4,5-dimethylthiazol-2-yl)-2,5-diphenyltetrazolinium bromide (MTT), or neutral red (NR) coloration which was assayed by multiscan spectrophotometer. The quantity of alive cells on control plate was taken in calculations for 100% [22, 23]. The LC50 was calculated using Graph Pad Prism 3.0 program, r < .05. Concentration of NO was determined according to [23].

[2] = tested on: MG-22A (mouse hepatoma); assay: In vitro cytotoxicity, MG-22A; format: cell-based; conditions: for CC50: Mus musculus, MG-22A; for LC50 MG-22A: mouse hepatoma, coloration not stated
Experimental: (§1) Monolayer tumour cell lines MG-22A (mouse hepatoma), HT-1080 (human fibrosarcoma), and normal mouse fibroblasts (NIH 3T3) were cultivated for 72 hours in DMEM standard medium (Sigma) without an indicator and antibiotics. After the ampoule had thawed, cells from one to four passages were used in three concentrations of test compound: 1, 10 and 100 μg mL^−1. The control cells and cells with tested compounds in the range of 2–5* 10^4 cell mL^−1 concentration (depending on line nature) were placed on separate 96 wells plates. Solutions containing test compounds were diluted and added in wells to give the final concentrations. Control cells were treated in the same manner only in the absence of test compounds. Plates were cultivated for 72 hours. The number of survived cells was determined using crystal violet (CV), 3-(4,5-dimethylthiazol-2-yl)-2,5-diphenyltetrazolinium bromide (MTT), or neutral red (NR) coloration which was assayed by multiscan spectrophotometer. The quantity of alive cells on control plate was taken in calculations for 100% [22, 23]. The LC50 was calculated using Graph Pad Prism 3.0 program, r < .05. Concentration of NO was determined according to [23].

[3] = tested on: HT-1080 (human fibrosarcoma); assay: Intracellular NO generation, HT-1080; format: cell-based; conditions: CV coloration
Experimental: as §1

[4] = tested on: HT-1080 (human fibrosarcoma); assay: In vitro cytotoxicity, HT-1080; format: cell-based; conditions: for stimulation of HT-1080 cell growing: CV, at all studied concentrations; for CC50: Homo sapiens; for LC50 HT-1080: human fibrosarcoma, coloration not stated
Experimental: as §1

[5] = tested on: MG-22A (mouse hepatoma); assay: Intracellular NO generation, MG-22A; format: cell-based; conditions: CV coloration
Experimental: as §1

[6] = tested on: HT-1080 (human fibrosarcoma); conditions: cited from earlier work
[7] = tested on: carrageenin mice paw edema (CPE); assay: Carrageenin-induced mice paw edema inhibition; format: in vivo, AKR or A mice
Experimental: AKR or A mice (20–30 g, groups of ten) of both sexes were used. Females pregnant were excluded. A single dose of 0.2 mmol/kg body weight of compounds 12, 16, 20, 21 and 0.01 mmol/kg of compound 22 or 0.013 mmol/kg of compound 14 suspended in water with few drops of Tween 80 was administered intraperitoneally simultaneously to the intradermally injection of 0.05 mL carrageenin in the right hind paw. Indomethacin was used as a standard diluted agent.
Organosilicon-containing compounds 12, 14, 16, 20–22 were examined in vivo for their anti-inflammatory activity using the carrageenin mice paw edema (CPE) as a model of inflammation. The in vivo anti-inflammatory effects of the tested thiazole derivatives were assessed by using the functional model of carrageenin-induced […] paw edema and are presented in Table 1 as percentage of weight increase at the right hind paw in comparison to the uninjected left hind paw.

[8] = target: T1, soybean lipoxygenase (LOX) (Glycine max, UniProt P08170); assay: Soybean lipoxygenase inhibition (UV absorbance at 234 nm); format: biochemical; conditions: for % inhibition LOX: at 0.1 mmol
T1 sequence (P08170 1-839): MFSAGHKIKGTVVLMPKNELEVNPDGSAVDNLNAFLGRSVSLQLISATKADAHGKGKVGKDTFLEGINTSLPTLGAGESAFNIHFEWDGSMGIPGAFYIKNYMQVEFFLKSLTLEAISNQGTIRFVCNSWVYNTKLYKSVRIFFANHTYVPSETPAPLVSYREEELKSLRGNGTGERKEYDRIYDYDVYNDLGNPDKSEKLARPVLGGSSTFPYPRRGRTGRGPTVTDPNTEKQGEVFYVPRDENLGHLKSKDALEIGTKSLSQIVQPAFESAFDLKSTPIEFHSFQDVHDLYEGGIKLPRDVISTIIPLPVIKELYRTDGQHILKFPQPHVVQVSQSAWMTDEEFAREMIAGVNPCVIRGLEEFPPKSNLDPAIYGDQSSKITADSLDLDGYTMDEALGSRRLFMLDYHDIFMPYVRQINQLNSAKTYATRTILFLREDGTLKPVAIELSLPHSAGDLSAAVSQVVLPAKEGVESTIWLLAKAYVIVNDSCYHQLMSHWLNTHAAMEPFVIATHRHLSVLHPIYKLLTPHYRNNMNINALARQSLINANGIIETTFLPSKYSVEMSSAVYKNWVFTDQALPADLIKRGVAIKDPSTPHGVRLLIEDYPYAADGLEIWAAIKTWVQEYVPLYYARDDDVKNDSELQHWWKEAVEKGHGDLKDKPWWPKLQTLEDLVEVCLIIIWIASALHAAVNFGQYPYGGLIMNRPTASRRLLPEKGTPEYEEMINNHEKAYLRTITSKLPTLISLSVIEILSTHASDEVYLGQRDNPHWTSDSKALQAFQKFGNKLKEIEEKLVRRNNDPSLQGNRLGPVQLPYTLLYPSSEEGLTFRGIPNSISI
Experimental: The tested compounds dissolved in DMSO or ethanol (concentrations ranged from 0.1 to 1 mM) were incubated at room temperature with sodium linoleate (0.1 mmol) and 0.2 mL of enzyme solution (250 U/mL in saline).
While one may not extrapolate the quantitative results of this assay to the inhibition of mammalian 5-LOX, it has been shown that inhibition of plant lipoxygenase activity by NSAIDs is qualitatively similar to their inhibition of the rat mast cell lipoxygenase and may be used as a simple qualitative screen for such activity. […] The IC50 values for compounds 14, 16, 17, 19, and 22 were determined.

[9] = NIH 3T3 normal mouse fibroblasts
[10] = 50% cell killing, MTT coloration, 72 hours, read-out: LC50 MG-22A MTT
[11] = 50% cell killing, crystal violet coloration, 72 hours, read-out: LC50 MG-22A CV
[12] = HT-1080, 50% cell killing, MTT coloration, 72 hours, read-out: LC50 HT-1080 MTT
[13] = HT-1080, 50% cell killing, crystal violet coloration, 72 hours, read-out: LC50 HT-1080 CV
[14] = dose 0.2 mmol/kgbw, intraperitoneally
[15] = soybean lipoxygenase, sodium linoleate 0.1 mmol, read-out: IC50 LOX
[16] = 72 h, read-out: LC50 MG-22A MTT
[17] = HT-1080, 72 h, read-out: LC50 HT-1080 MTT

Compound: O=C(CN1CCC(O)CC1)Nc1nccs1 [Compound 6, 2-(4-hydroxypiperidin-1-yl)-N-(thiazol-2-yl)-acetnamide]
- CC50 at 72 h [1, 9]: > 100 µg/mL
- LD50 [1]: > 2000 mg/kg
- decrease of MG-22A cell growing ([2]; MTT coloration): up to 40%
- CC50 [2, 10]: > 100 µg/mL
- CC50 [2, 11]: > 100 µg/mL
- LC50 MG-22A [2]: do not exhibit cytotoxic properties
- NO HT-1080 CV [3]: 4
- stimulation of HT-1080 cell growing [4]: up to 55%
- CC50 [4, 12]: > 100 µg/mL
- CC50 [4, 13]: > 100 µg/mL
- LC50 HT-1080 [4]: do not exhibit cytotoxic properties
- NO MG-22A CV [5]: 6

Compound: COc1ccc(-c2csc(NC(=O)CN3CCC(O)CC3)n2)cc1 [Compound 8, 2-(4-hy-droxypiperidin-1-yl)-N-[4-(p-methoxyphenyl)-thiazol-2-yl]-acetamide]
- CC50 at 72 h [1, 9]: > 100 µg/mL
- LD50 [1]: 1110 mg/kg
- CC50 [2, 10]: 16 µg/mL
- CC50 [2, 11]: 17 µg/mL
- NO HT-1080 CV [3]: 8
- CC50 [4, 12]: 100 µg/mL (≈ 288 µM)
- CC50 [4, 13]: > 100 µg/mL
- NO MG-22A CV [5]: 75

Compound: O=C(CCN1CCC(O)CC1)Nc1nccs1 [Compound 10, 3-(4-hydroxypiperidin-1-yl)-N-(thiazol-2-yl)-propionamide]
- LC50 human fibrosarcoma ([6]; HT-1080, coloration not stated, previously published data ref 17): 48 µg/mL (≈ 188 µM)

Compound: Cc1ncsc1CCO[Si](C)(C)C [Compound 12, 4-methyl-5-(β-trimethylsiloxyethyl)-thiazole]
- % carrageenin mice paw edema inhibition (CPE%) [7, 14]: 24 ^** %
- % inhibition LOX ([8]; soybean lipoxygenase): 9.1%

Compound: C[Si](C)(C)OCc1csc(N)n1 [Compound 14, 2-amino-4-trimethylsiloxymethyl-thiazole]
- % carrageenin mice paw edema inhibition (CPE%) ([7]; dose 0.013 mmol/kg, intraperitoneally): 35.5 ^* %
- IC50 [8, 15]: 100 µM

Compound: C[Si](C)(C)OCc1csc(-c2ccccc2)n1 [Compound 16, 2-phenyl-4-trimethylsilox-ymethyl-thiazole]
- % carrageenin mice paw edema inhibition (CPE%) [7, 14]: 47.6 ^* %
- IC50 [8, 15]: 470 µM

Compound: C[Si](C)(C)OC1CCN(CC(=O)Nc2nccs2)CC1 [Compound 17, 2-(4-trimethylsiloxypiperidin-1-yl)-N-(thiazol-2-yl)-acetamide]
- CC50 at 72 h [1]: > 100 µg/mL
- LD50 [1]: 2130 mg/kg
- decrease of MG-22A cell growing ([2]; MTT coloration): up to 40%
- CC50 [2, 16]: > 100 µg/mL
- LC50 MG-22A [2]: do not exhibit cytotoxic properties; also recorded: inactive
- NO HT-1080 CV [3]: 11
- IC50 [8]: 350 µM
- stimulation of HT-1080 cell growing [4]: up to 55%
- CC50 [4, 17]: > 100 µg/mL
- LC50 HT-1080 [4]: do not exhibit cytotoxic properties; also recorded: inactive
- NO MG-22A CV [5]: 23

Compound: C[Si](C)(C)OC1CCN(CC(=O)Nc2nc(-c3ccccc3)cs2)CC1 [Compound 18, 2-(4-trimethylsiloxypiperidin-1-yl)-N-(4-phenylthiazol-2-yl)-acetamide]
- % inhibition LOX ([8]; soybean lipoxygenase): 66.7%

Compound: COc1ccc(-c2csc(NC(=O)CN3CCC(O[Si](C)(C)C)CC3)n2)cc1 [Compound 19, 2-(4-trimethylsilyloxypiperidin-1-yl)-N-[4-(p-methoxyphenyl)-thiazol-2-yl]-acetamide]
- CC50 at 72 h [1]: 72 µg/mL (≈ 172 µM)
- LD50 [1]: 839 mg/kg
- CC50 ([2]; 72 h, read-out: LC50 MG-22A CV): 21 µg/mL
- CC50 [2, 16]: 13 µg/mL
- CC50 ([2]; read-out: LC50 MG-22A): 30 µM
- NO HT-1080 CV [3]: 27
- IC50 [8]: 10 µM
- CC50 [4, 17]: 100 µg/mL (≈ 238 µM)
- CC50 ([4]; HT-1080, read-out: LC50 HT-1080): > 100 µg/mL
- NO MG-22A CV [5]: 122

Compound: CCCCCCCCCCCCCCc1sc(NC(=O)CN2CCC(O[Si](C)(C)C)CC2)nc1-c1ccccc1 [Compound 20, 2-(4-trimethylsiloxypiperidin-1-yl)-N-(4-phenyl-5-tetradecylthi-azol-2-yl)-acetamide]
- % carrageenin mice paw edema inhibition (CPE%) [7, 14]: 38.3 ^* %
- lower lipoxygenase inhibiting properties in comparison with compound 18 ([8]; difference of % inhibition at 0.1 mmol): 26%
- % inhibition LOX ([8]; soybean lipoxygenase): 40.8%

Compound: C[Si](C)(C)OC1CCN(CCC(=O)Nc2nccs2)CC1 [Compound 21, 3-(4-trimethylsiloxypiperidin-1-yl)-N-(thiazol-2-yl)-propionamide]
- % carrageenin mice paw edema inhibition (CPE%) [7, 14]: 57.2% and 57.2 ^* %
- LC50 human fibrosarcoma [6]: 44 µg/mL (≈ 134 µM)

Compound: C[Si](C)(C)CCC[n+]1ccsc1N.[I-] [Compound 22, 2-amino-3-(γ-trimethylsilylpropyl)thiazolium iodide]
- % carrageenin mice paw edema inhibition (CPE%) ([7]; dose 0.01 mmol/kg, intraperitoneally): 55.0% and 55.0 ^* %
- IC50 [8, 15]: 460 µM

Compound: COc1ccc2c(c1)c(CC(=O)O)c(C)n2C(=O)c1ccc(Cl)cc1 [Indomethacin, reference compound]
- % carrageenin mice paw edema inhibition (CPE%) ([7]; standard, dose 0.1 mmol/kgbw): 57.4%
